Test results: patent US20090054392A1, “NAPHTHYLPYRIMIDINE, NAPHTHYLPYRAZINE AND NAPHTHYLPYRIDAZINE ANALOGS AND THEIR USE AS AGONISTS OF THE WNT-BETA-CATENIN CELLULAR MESSAGING SYSTEM” (Wyeth, priority 2007, published 2009)

Test system: Dkk1-LRP5-TCF-Luciferase
Test: Functional Dkk1-LRP5-TCF-Luciferase Assay in U2OS Cells
Details: for fold induction at 2 µM / fold induction at 20 µM / EC50: Homo sapiens, U2OS; for fold induction at 2 µM: read-out: B = TCF ACTIVITY/DMSO CONTROL Fold induction @ 2.0 uM, 2.0 uM compound; for A = MAX FOLD Induction/DMSO CONTROL: maximum fold induction over DMSO control; for fold induction at 20 µM: read-out: C = TCF ACTIVITY/DMSO CONTROL Fold induction @ 20.0 uM, 20.0 uM compound

Row | SMILES | fold induction at 2 µM | A = MAX FOLD Induction/DMSO CONTROL [fold] | fold induction at 20 µM | EC50 [nM]
1 | c1ccc2cc(-c3ccnc(N4CCC(CN5CCC5)C4)n3)ccc2c1 (centres unmarked) [2-[3-(azetidin-1-ylmethyl)pyrrolidin-1-yl]-4-(2-naphthyl)pyrimidine] | 1.73 | 2.500 |  | 
2 | ClCC1CCN(c2nccc(-c3ccc4ccccc4c3)n2)C1 (centres unmarked) [2-[3-(chloromethyl)pyrrolidin-1-yl]-4-(2-naphthyl)pyrimidine] | 1.32 |  | 0.49 | 
3 | c1ccc2cc(-c3ccnc(N4CCC(Cn5ccnc5)CC4)n3)ccc2c1 [2-[4-(1H-imidazol-1-ylmethyl)piperidin-1-yl]-4-(2-naphthyl)pyrimidine] | 1.13 | 4.630 | 3.34 | 11700
4 | [N-]=[N+]=NCCC1CCN(c2nccc(-c3ccc4ccccc4c3)n2)CC1 [2-[4-(2-azidoethyl)piperidin-1-yl]-4-(2-naphthyl)pyrimidine] | 1 |  | 1.67 | 
5 | O=C(c1ccco1)N1CCN(c2nccc(-c3ccc4ccccc4c3)n2)CC1 [2-[4-(2-furoyl)piperazin-1-yl]-4-(2-naphthyl)pyrimidine] | 1.49 | 1.630 | 3.62 | 
6 | c1ccc2c(c1)CCN(c1nccc(-c3ccc4ccccc4c3)n1)C2 [2-[4-(2-naphthyl)pyrimidin-2-yl]-1,2,3,4-tetrahydroisoquinoline] | 0.95 |  | 1.38 | 
7 | c1ccc2cc(-c3ccnc(N4CCC5(CCNCC5)C4)n3)ccc2c1 [2-[4-(2-naphthyl)pyrimidin-2-yl]-2,8-diazaspiro[4.5]decane] | 1.7 |  |  | 
8 | c1ccc2cc(-c3ccnc(N4CC[C@@H](n5ccnc5)C4)n3)ccc2c1 [2-[(3R)-3-(1H-imidazol-1-yl)pyrrolidin-1-yl]-4-(2-naphthyl)pyrimidine] | 1.31 | 1.960 | 3.9 | 
9 | c1ccc2cc(-c3ccnc(N4CC[C@H](Cn5ccnc5)C4)n3)ccc2c1 [2-[(3R)-3-(1H-imidazol-1-ylmethyl)pyrrolidin-1-yl]-4-(2-naphthyl)pyrimidine] | 1.95 | 3.290 | 3.04 | 
10 | CN1CCN([C@@H]2CCN(c3nccc(-c4ccc5ccccc5c4)n3)C2)CC1 [2-[(3R)-3-(4-methylpiperazin-1-yl)pyrrolidin-1-yl]-4-(2-naphthyl)pyrimidine] | 3.67 | 1.020 | 0.01 | 
11 | CO[C@@H]1CCN(c2nccc(-c3ccc4ccccc4c3)n2)C1 [2-[(3R)-3-methoxypyrrolidin-1-yl]-4-(2-naphthyl)pyrimidine] | 1.36 | 1.990 | 3.1 | 659
12 | c1ccc2cc(-c3ccnc(N4CC[C@H](n5ccnc5)C4)n3)ccc2c1 [2-[(3S)-3-(1H-imidazol-1-yl)pyrrolidin-1-yl]-4-(2-naphthyl)pyrimidine] | 1.29 | 3.800 | 3.92 | 3930
13 | c1ccc2cc(-c3ccnc(N4CC[C@@H](Cn5ccnc5)C4)n3)ccc2c1 [2-[(3S)-3-(1H-imidazol-1-ylmethyl)pyrrolidin-1-yl]-4-(2-naphthyl)pyrimidine] | 1.27 | 2.430 | 4.29 | 
14 | CN1CCN([C@H]2CCN(c3nccc(-c4ccc5ccccc5c4)n3)C2)CC1 [2-[(3S)-3-(4-methylpiperazin-1-yl)pyrrolidin-1-yl]-4-(2-naphthyl)pyrimidine] | 5.69 | 7.175 | 0.01 | 696
15 | CO[C@H]1CCN(c2nccc(-c3ccc4ccccc4c3)n2)C1 [2-[(3S)-3-methoxypyrrolidin-1-yl]-4-(2-naphthyl)pyrimidine] | 1.48 | 1.755 | 2.27 | 2580
16 | CCN(CCO)CC1CCN(c2nccc(-c3ccc4ccccc4c3)n2)CC1 [2-[ethyl({1-[4-(2-naphthyl)pyrimidin-2-yl]piperidin-4-yl}methyl)amino]ethanol] | 4.93 | 2.760 | 0.01 | 
17 | CCN(CCO)CC1CCN(c2nccc(-c3ccc4ccccc4c3)n2)C1 (centres unmarked) [2-[ethyl({1-[4-(2-naphthyl)pyrimidin-2-yl]pyrrolidin-3-yl}methyl)amino]ethanol] | 2.8 | 3.635 | 0.01 | 2260
18 | CCN(CCO)C[C@H]1CCN(c2nccc(-c3ccc4ccccc4c3)n2)C1 [2-[ethyl({(3R)-1-[4-(2-naphthyl)pyrimidin-2-yl]pyrrolidin-3-yl}methyl)amino]ethanol] | 2.93 | 3.895 | 0.15 | 2920

Row | SMILES | fold induction at 2 µM | A = MAX FOLD Induction/DMSO CONTROL [fold] | fold induction at 20 µM | EC50 [nM]
19 | CCN(CCO)C[C@@H]1CCN(c2nccc(-c3ccc4ccccc4c3)n2)C1 [2-[ethyl({(3S)-1-[4-(2-naphthyl)pyrimidin-2-yl]pyrrolidin-3-yl}methyl)amino]ethanol] | 3.48 | 3.540 | 0.04 | 
20 | c1ccc2cc(-c3ccnc(N4CCC4)n3)ccc2c1 [2-azetidin-1-yl-4-(2-naphthyl)pyrimidine] | 1.37 |  | 1.58 | 
21 | CC(C)CNCC1CCN(c2nccc(-c3ccc4ccccc4c3)n2)CC1 [2-methyl-N-({1-[4-(2-naphthyl)pyrimidin-2-yl]piperidin-4-yl}methyl)propan-1-amine] | 1.4 | 1.480 | 0.14 | 
22 | CC(C)(C)NCC1CCN(c2nccc(-c3ccc4ccccc4c3)n2)CC1 [2-methyl-N-({1-[4-(2-naphthyl)pyrimidin-2-yl]piperidin-4-yl}methyl)propan-2-amine] | 1.49 | 3.890 | 5.76 | 10600
23 | CC(C)(C)NCC1CCN(c2nccc(-c3ccc4ccccc4c3)n2)C1 (centres unmarked) [2-methyl-N-({1-[4-(2-naphthyl)pyrimidin-2-yl]pyrrolidin-3-yl}methyl)propan-2-amine] | 1.99 | 3.106 | 0.018 | 1370
24 | CC(C)(C)NC[C@H]1CCN(c2nccc(-c3ccc4ccccc4c3)n2)C1 [2-methyl-N-({(3R)-1-[4-(2-naphthyl)pyrimidin-2-yl]pyrrolidin-3-yl}methyl)propan-2-amine] | 2.24 | 2.300 | 0.01 | 
25 | CC(C)(C)NC[C@@H]1CCN(c2nccc(-c3ccc4ccccc4c3)n2)C1 [2-methyl-N-({(3S)-1-[4-(2-naphthyl)pyrimidin-2-yl]pyrrolidin-3-yl}methyl)propan-2-amine] | 2.44 | 4.610 | 0.06 | 
26 | NCCC1CCN(c2nccc(-c3ccc4ccccc4c3)n2)CC1 [2-{1-[4-(2-naphthyl)pyrimidin-2-yl]piperidin-4-yl}ethanamine] | 2.15 | 1.420 | 0.005 | 
27 | OCCC1CCN(c2nccc(-c3ccc4ccccc4c3)n2)CC1 [2-{1-[4-(2-naphthyl)pyrimidin-2-yl]piperidin-4-yl}ethanol] | 1.54 | 1.840 | 1.64 | 
28 | CS(=O)(=O)OCCC1CCN(c2nccc(-c3ccc4ccccc4c3)n2)CC1 [2-{1-[4-(2-naphthyl)pyrimidin-2-yl]piperidin-4-yl}ethyl methanesulfonate] | 1.02 |  | 1.18 | 
29 | NCCC1CCN(c2nccc(-c3ccc4ccccc4c3)n2)C1 (centres unmarked) [2-{1-[4-(2-naphthyl)pyrimidin-2-yl]pyrrolidin-3-yl}ethanamine] | 4.23 | 5.940 |  | 700
30 | CN1CCN(CC2CCN(c3nccc(-c4ccc5ccccc5c4)n3)C2)CC1 (centres unmarked) [2-{3-[(4-methylpiperazin-1-yl)methyl]pyrrolidin-1-yl}-4-(2-naphthyl)pyrimidine] | 2.7 | 1.340 |  | 
31 | CN1CCN(CC2CCN(c3nccc(-c4ccc5ccccc5c4)n3)CC2)CC1 [2-{4-[(4-methylpiperazin-1-yl)methyl]piperidin-1-yl}-4-(2-naphthyl)pyrimidine] | 5.46 | 5.430 |  | 1190
32 | NCC[C@H]1CCCN1c1nccc(-c2ccc3ccccc3c2)n1 [2-{(2R)-1-[4-(2-naphthyl)pyrimidin-2-yl]pyrrolidin-2-yl}ethanamine] | 2.72 | 2.270 | 0.01 | 
33 | CN1CCN(C(=O)[C@H]2CCCN2c2nccc(-c3ccc4ccccc4c3)n2)CC1 [2-{(2R)-2-[(4-methylpiperazin-1-yl)carbonyl]pyrrolidin-1-yl}-4-(2-naphthyl)pyrimidine] | 1.01 | 1.600 | 2.09 | 
34 | NCC[C@@H]1CCCN1c1nccc(-c2ccc3ccccc3c2)n1 [2-{(2S)-1-[4-(2-naphthyl)pyrimidin-2-yl]pyrrolidin-2-yl}ethanamine] | 4.08 | 2.950 | 0.02 | 
35 | CN1CCN(C(=O)[C@@H]2CCCN2c2nccc(-c3ccc4ccccc4c3)n2)CC1 [2-{(2S)-2-[(4-methylpiperazin-1-yl)carbonyl]pyrrolidin-1-yl}-4-(2-naphthyl)pyrimidine] | 0.9 |  | 1.6 | 
